From patent US20140011799A1 (Bristol-Myers Squibb Company, priority 2012, published 2014)

Legend:
[1] = target: T1, Endothelial lipase (EL) (Homo sapiens, UniProt Q9Y5X9); assay: Endothelial lipase (EL) enzymatic assay, fluorescent substrate A10070 in DMPG vesicles; assay type: biochemical; details: EL from conditioned media of HT-1080 cells; compound preincubated 30 min at 37° C; read-out: EL IC50
T1 construct: HT-1080 cells that were transformed using RAGE technology (Athersys) to overexpress endogenous EL; endogenous in cells; conditioned medium used
T1 sequence (Q9Y5X9 21-500): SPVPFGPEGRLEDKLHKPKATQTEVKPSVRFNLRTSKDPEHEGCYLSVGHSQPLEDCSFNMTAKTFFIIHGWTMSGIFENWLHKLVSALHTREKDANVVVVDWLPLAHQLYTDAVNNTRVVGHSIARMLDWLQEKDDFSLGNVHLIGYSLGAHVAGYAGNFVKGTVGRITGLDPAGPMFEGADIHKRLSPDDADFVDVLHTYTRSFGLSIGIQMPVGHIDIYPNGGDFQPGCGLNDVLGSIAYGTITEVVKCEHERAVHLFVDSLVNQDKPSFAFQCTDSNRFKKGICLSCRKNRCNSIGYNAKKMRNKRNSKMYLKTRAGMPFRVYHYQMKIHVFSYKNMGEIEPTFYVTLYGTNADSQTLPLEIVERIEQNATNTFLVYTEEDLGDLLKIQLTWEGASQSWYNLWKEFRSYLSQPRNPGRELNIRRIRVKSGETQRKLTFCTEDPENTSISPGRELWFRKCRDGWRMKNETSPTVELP
Outline: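 Vesicles prepared: A10070 dried with DMPG, resuspended in HEPES pH 8.0/NaCl/EDTA, sonicated on ice. Enzyme incubated with compound 30 min at 37° C. Reaction started with 1:10 diluted vesicles. Fluorescence (490/530 nm) followed 60 min; slope from 300–900 secs gives rate.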

[2] = target: T2, hepatic lipase (HL) (Homo sapiens, UniProt P11150); assay: Hepatic lipase (HL) enzymatic assay, fluorescent substrate A10070 in DMPG vesicles; assay type: biochemical; details: HL partially purified from conditioned media of COS cells; compound preincubated 30 min at 37° C; read-out: HL IC50
T2 construct: made in house; host or cells: COS cells (conditioned medium, partially purified)
T2 sequence (P11150 23-499): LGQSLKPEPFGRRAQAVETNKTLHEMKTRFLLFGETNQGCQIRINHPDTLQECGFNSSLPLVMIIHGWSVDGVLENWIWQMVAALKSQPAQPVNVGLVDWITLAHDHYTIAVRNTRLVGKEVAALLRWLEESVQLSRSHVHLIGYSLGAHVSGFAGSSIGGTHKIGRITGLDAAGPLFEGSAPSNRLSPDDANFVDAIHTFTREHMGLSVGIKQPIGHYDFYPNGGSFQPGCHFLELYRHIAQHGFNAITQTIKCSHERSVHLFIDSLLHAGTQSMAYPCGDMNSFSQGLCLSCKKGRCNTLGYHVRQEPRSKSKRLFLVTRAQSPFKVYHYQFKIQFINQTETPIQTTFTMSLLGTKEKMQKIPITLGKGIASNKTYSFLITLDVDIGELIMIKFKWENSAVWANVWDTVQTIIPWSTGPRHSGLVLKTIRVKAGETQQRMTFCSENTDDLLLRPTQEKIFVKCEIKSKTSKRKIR
Description: Endothelial lipase (EL) and hepatic lipase (HL) activities were measured using a fluorescent substrate, A10070, (Invitrogen, CA) doped into an artificial vesicle containing DMPG (Avanti Polar Lipids) as the excipient. Vesicles were prepared by combining 571 μL of 29 mM DMPG in a 1:1 mixture of MeOH and CHCl3 with 2000 μL of 1 mM A10070 in a 1:1 mixture of MeOH and CHCl3. The mixture was dried under nitrogen in multiple vials then resuspended in 20 mL total volume of 50 mM HEPES pH 8.0 buffer containing 50 mM NaCl and 0.2 mM EDTA. The sample was allowed to sit at room temperature for 15 min and then was sonicated 3×4 mins on ice with a Branson Sonicator using duty cycle 1. This preparation provides vesicles with a mole fraction of 0.11 for the FRET substrate.
The enzymatic assay was measured using 384-well white Optiplates. Each well contained 20 μL of assay buffer (50 mM HEPES pH 8.0, 50 mM NaCl and 1 mM CaCl2) and 0.25 μL of a DMSO solution containing a compound of interest. EL or HL (10 μL) was added and allowed to incubate with the compound for 30 min at 37° C. The source of EL was conditioned media obtained from HT-1080 cells that were transformed using RAGE technology (Athersys) to overexpress endogenous EL, and HL was partially purified from conditioned media obtained from COS cells overexpressing HL. The reaction was started by the addition of 10 μL of a 1:10 dilution of vesicles. The final total reaction volume was […]. The reaction rates were measured on a Gemini plate reader with an excitation wavelength of 490 nm and an emission wavelength of 530 nm. Readings were taken over a period of 60 minutes, and the slope between 300 and 900 secs of the readout was used to calculate the rate of the reaction.

Row | Structure (SMILES) | IC50 [1] [nM] | IC50 [2] [nM]
1 | C[C@]1(Cc2nnc(C(c3nc4ccc(-c5ccc(C(=O)N6CCOCC6)cc5)cc4s3)S(C)(=O)=O)o2)OC(=O)NC1=O (stereo partly drawn) [Example 109, (5R)-5-methyl-5-((5-((methylsulfonyl)(6-(4-(4-morpholinylcarbonyl)phenyl)-1,3-benzothiazol-2-yl)methyl)-1,3,4-oxadiazol-2-yl)methyl)-1,3-oxazolidine-2,4-dione] | < 10 | 764
2 | CS(=O)(=O)C(c1nnc(C[C@H]2NS(=O)(=O)NC2=O)o1)c1nc2ccc(-c3ccc(C(=O)N4CCOCC4)cc3)cc2s1 (stereo partly drawn) [Example 110, (4R)-4-((5-((methylsulfonyl) (6-(4-(4-morpholinylcarbonyl)phenyl)-1,3-benzothiazol-2-yl)methyl)-1,3,4-oxadiazol-2-yl)methyl)-1,2,5-thiadiazolidin-3-one 1,1-dioxide] | 19 | 3240
3 | CS(=O)(=O)C(c1nnc(C[C@@H]2NS(=O)(=O)NC2=O)o1)c1nc2ccc(-c3ccc(C(=O)N4CCOCC4)cc3)cc2s1 (stereo partly drawn) [Example 111, (4S)-4-((5-((methylsulfonyl) (6-(4-(4-morpholinylcarbonyl)phenyl)-1,3-benzothiazol-2-yl)methyl)-1,3,4-oxadiazol-2-yl)methyl)-1,2,5-thiadiazolidin-3-one 1,1-dioxide] | < 10 | 629
4 | COC(=O)CCS(=O)(=O)C(c1nnc(CNS(N)(=O)=O)o1)c1nc2ccc(-c3cnn(C)c3)cc2s1 (stereo not drawn) [Example 112, methyl 3-(((6-(1-methyl-1H-pyrazol-4-yl)-1,3-benzothiazol-2-yl)(5-((sulfamoylamino)methyl)-1,3,4-oxadiazol-2-yl)methyl)sulfonyl)propanoate] | < 10 | < 10
5 | Cn1cc(-c2ccc3nc(C(c4nnc(CNS(N)(=O)=O)o4)S(C)(=O)=O)sc3c2)cn1 (stereo not drawn) [Example 113, N-((5-((6-(1-methyl-1H-pyrazol-4-yl)-1,3-benzothiazol-2-yl)(methylsulfonyl)methyl)-1,3,4-oxadiazol-2-yl)methyl) sulfamide] | < 10 | 220
6 | CS(=O)(=O)C(c1nnc(CNS(N)(=O)=O)o1)c1nc2ccc(Br)cc2s1 (stereo not drawn) [Example 114, N-((5-((6-bromo-1,3-benzothiazol-2-yl)(methylsulfonyl)methyl)-1,3,4-oxadiazol-2-yl)methyl) sulfamide] | < 10 | 220
7 | COCCS(=O)(=O)C(c1nnc(CNS(=O)(=O)NC(=O)OC(C)(C)C)o1)c1nc2ccc(-c3cnn(C)c3)cc2s1 (stereo not drawn) [Example 115, tert-butyl (((5-(((2-methoxyethyl)sulfonyl)(6-(1-methyl-1H-pyrazol-4-yl)-1,3-benzothiazol-2-yl)methyl)-1,3,4-oxadiazol-2-yl)methyl)sulfamoyl)carbamate] | 117 | > 25000
8 | COCCS(=O)(=O)C(c1nnc(CNS(N)(=O)=O)o1)c1nc2ccc(-c3cnn(C)c3)cc2s1 (stereo not drawn) [Example 116, N-((5-(((2-methoxyethyl)sulfonyl)(6-(1-methyl-1H-pyrazol-4-yl)-1,3-benzothiazol-2-yl)methyl)-1,3,4-oxadiazol-2-yl)methyl) sulfamide] | < 10 | 143
9 | Cc1noc(C)c1-c1ccc2nc(C(c3nnc(CNS(N)(=O)=O)o3)S(C)(=O)=O)sc2c1 (stereo not drawn) [Example 117, N-[(5-{[6-(3,5-dimethyl-1,2-oxazol-4-yl)-1,3-benzothiazol-2-yl](methylsulfonyl)methyl}-1,3,4-oxadiazol-2-yl)methyl] sulfuric diamide] | 24 | 230
10 | Cc1cc(-c2ccc3nc(C(c4nnc(CNS(N)(=O)=O)o4)S(C)(=O)=O)sc3c2)n(C)n1 (stereo not drawn) [Example 118, N-[(5-{[6-(1,3-dimethyl-1H-pyrazol-5-yl)-1,3-benzothiazol-2-yl](methylsulfonyl)methyl}-1,3,4-oxadiazol-2-yl)methy] sulfuric diamide] | 18 | 396
11 | COCCS(=O)(=O)C(c1nnc(CNS(N)(=O)=O)o1)c1nc2ccc(-c3ccccc3)cc2s1 (stereo not drawn) [Example 119, N-[(5-{[(2-methoxyethyl)sulfonyl](6-phenyl-1,3-benzothiazol-2-yl)methyl}-1,3,4-oxadiazol-2-yl)methyl]sulfuric diamide] | < 10 | < 10
12 | C=CCS(=O)(=O)C(c1nnc(CNS(N)(=O)=O)o1)c1nc2ccc(-c3ccccc3)cc2s1 (stereo not drawn) [Example 120, N-((5-((allylsulfonyl)(6-phenyl-1,3-benzothiazol-2-yl)methyl)-1,3,4-oxadiazol-2-yl)methyl)sulfamide] | < 10 | < 10
13 | CC(C)(C)OC(=O)NS(=O)(=O)NCc1nnc(C(c2nc3ccc(-c4cncnc4)cc3s2)S(=O)(=O)Cc2ccccc2)o1 (stereo not drawn) [Example 121, tert-butyl (((5-((benzylsulfonyl)(6-(5-pyrimidinyl)-1,3-benzothiazol-2-yl)methyl)-1,3,4-oxadiazol-2-yl)methyl)sulfamoyl)carbamate] | 147 | 6550
14 | COC(=O)NCCS(=O)(=O)C(c1nnc(CNS(N)(=O)=O)o1)c1nc2ccc(-c3ccccc3)cc2s1 (stereo not drawn) [Example 122, methyl (2-(((6-phenyl-1,3-benzothiazol-2-yl)(5-((sulfamoylamino)methyl)-1,3,4-oxadiazol-2-yl)methyl)sulfonyl)ethyl)carbamate] | < 10 | < 10
15 | CC(C)(C)OC(=O)NS(=O)(=O)NCc1nnc(C(c2nc3ccc(-c4ccc(Cl)cc4)cc3s2)S(=O)(=O)Cc2ccccc2)o1 (stereo not drawn) [Example 123, tert-butyl (((5-((benzylsulfonyl)(6-(4-chlorophenyl)-1,3-benzothiazol-2-yl)methyl)-1,3,4-oxadiazol-2-yl)methyl)sulfamoyl)carbamate] | < 10 | < 10
16 | NS(=O)(=O)NCc1nnc(C(c2nc3ccc(Br)cc3s2)S(=O)(=O)Cc2ccccc2)o1 (stereo not drawn) [Example 124, N-((5-((benzylsulfonyl)(6-bromo-1,3-benzothiazol-2-yl)methyl)-1,3,4-oxadiazol-2-yl)methyl)sulfamide] | 48 | 37
17 | NS(=O)(=O)NCc1nnc(C(c2nc3ccc(-c4cncnc4)cc3s2)S(=O)(=O)Cc2ccccc2)o1 (stereo not drawn) [Example 125, N-((5-((benzylsulfonyl)(6-(5-pyrimidinyl)-1,3-benzothiazol-2-yl)methyl)-1,3,4-oxadiazol-2-yl)methyl) sulfamide] | < 10 | 103
18 | NS(=O)(=O)NCc1nnc(C(c2nc3ccc(-c4ccc(F)cc4)cc3s2)S(=O)(=O)Cc2ccccc2)o1 (stereo not drawn) [Example 127, N-((5-((benzylsulfonyl)(6-(4-fluorophenyl)-1,3-benzothiazol-2-yl)methyl)-1,3,4-oxadiazol-2-yl)methyl) sulfamide] | < 10 | < 10
